Results published in PMC11844072, “Novel 5,6-dichlorobenzimidazole derivatives as dual BRAFWT and BRAFV600E inhibitors: design, synthesis, anti-cancer activity and molecular dynamics simulations” (BMC Chemistry, 2025).

Assays:
Assay in all cases: NCI 60 single concentration growth inhibition
Type in all cases: cell-based, human
EKVX = conditions: Homo sapiens, Non-small cell lung cancer, read-out: GI%
Method in brief: (§1)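 Cells are plated and left 24 h, and a time-zero plate is fixed at drug addition. Compound is then added for 48 h, the cells are fixed in cold TCA and stained with 0.4% SRB, and bound dye is solubilised in 10 mM Tris for reading at 515 nm.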

RXF 393 = conditions: Homo sapiens, RXF 393, Renal cancer, read-out: GI%
Method in brief: as §1

MDA-MB-435 = conditions: Homo sapiens, MDA-MB-435, Melanoma, read-out: GI%
Method in brief: as §1

OVCAR-5 = conditions: Homo sapiens, OVCAR-5, Ovarian cancer, read-out: GI%
Method in brief: as §1

SR = conditions: Homo sapiens, Leukemia, read-out: GI%
Method in brief: (§2)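 Read-out is SRB absorbance at 515 nm after TCA fixation (10% for adherent lines, 16% for suspension lines). Drugs were applied for 48 h following a 24 h plating period. Growth percentages came from time-zero, control and treated absorbances.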

HOP-62 = conditions: Homo sapiens, HOP-62, Non-small cell lung cancer, read-out: GI%
Method in brief: as §1

786-0 = conditions: Homo sapiens, 786-0, Renal cancer, read-out: GI%
Method in brief: as §1

UACC-62 = conditions: Homo sapiens, UACC-62, Melanoma, read-out: GI%
Method in brief: as §1

SK-OV-3 = conditions: Homo sapiens, SK-OV-3, Ovarian cancer, read-out: GI%
Method in brief: as §1

T-47D = conditions: Homo sapiens, T47D, Breast cancer, read-out: GI%
Method in brief: as §1

ACHN = conditions: Homo sapiens, Renal cancer, read-out: GI%
Method in brief: as §1

CAKI-1 = conditions: Homo sapiens, CAKI-1, Renal cancer, read-out: GI%
Method in brief: as §1

KM12 = conditions: Homo sapiens, KM12, Colon cancer, read-out: GI%
Method in brief: as §1

NCI-H23 = conditions: Homo sapiens, NCI-H23, Non-small cell lung cancer, read-out: GI%
Method in brief: as §1

M14 = conditions: Homo sapiens, M14, Melanoma, read-out: GI%
Method in brief: as §1

UACC-257 = conditions: Homo sapiens, UACC-257, Melanoma, read-out: GI%
Method in brief: as §1

CCRF-CEM = conditions: Homo sapiens, Leukemia, read-out: GI%
Method in brief: as §1

HS 578T = conditions: Homo sapiens, Breast cancer, read-out: GI%
Method in brief: as §1

MDA-MB-468 = conditions: Homo sapiens, MDA-MB-468, Breast cancer, read-out: GI%
Method in brief: as §1

HCT-116 = conditions: Homo sapiens, HCT-116, Colon cancer, read-out: GI%
Method in brief: as §1

MOLT-4 = conditions: Homo sapiens, MOLT-4, Leukemia, read-out: GI%
Method in brief: as §2

RPMI-8226 = conditions: Homo sapiens, RPMI-8226, Leukemia, read-out: GI%
Method in brief: as §1

Structure (SMILES)	inhibition at 10 µM (EKVX) [%]	inhibition at 10 µM (RXF 393) [%]	inhibition at 10 µM (MDA-MB-435) [%]	inhibition at 10 µM (OVCAR-5) [%]	inhibition at 10 µM (SR) [%]	inhibition at 10 µM (HOP-62) [%]	inhibition at 10 µM (786-0) [%]	inhibition at 10 µM (UACC-62) [%]	inhibition at 10 µM (SK-OV-3) [%]	inhibition at 10 µM (T-47D) [%]	inhibition at 10 µM (ACHN) [%]	inhibition at 10 µM (CAKI-1) [%]	inhibition at 10 µM (KM12) [%]	inhibition at 10 µM (NCI-H23) [%]	inhibition at 10 µM (M14) [%]	inhibition at 10 µM (UACC-257) [%]	inhibition at 10 µM (CCRF-CEM) [%]	inhibition at 10 µM (HS 578T) [%]	inhibition at 10 µM (MDA-MB-468) [%]	inhibition at 10 µM (HCT-116) [%]	further results
COC(=O)COc1cc(C=NNC(=O)Cn2c(-c3ccc(OC)cc3)nc3cc(Cl)c(Cl)cc32)ccc1OC [Compound 10o, Methyl-2-(5-((2-(2-(5,6-dichloro-2-(4-methoxyphenyl)-1H-benzo[d]imidazol-1-yl)acetyl)hydrazono)methyl)-2-methoxyphenoxy)acetate]	14	129	45.5	< 5	90.9	< 5	11.9	24.3	24.1	106	71.3	37	< 5	7.03	36.5	41.4	16.9	128	118	22.9	inhibition at 10 µM (MOLT-4): 40.4%; inhibition at 10 µM (RPMI-8226): 17.9%
COc1ccc(-c2nc3cc(Cl)c(Cl)cc3n2CC(=O)NN=Cc2cccc(OC)c2)cc1 [Compound 10c, 2-(5,6-Dichloro-2-(4-methoxyphenyl)-1H-benzo[d]imidazol-1-yl)-N'-(3-methoxybenzylidene)acetohydrazide]	30.4	23.1	33	< 5	48.4	6.68	19.2	37.2	10.1	45.8	20.4	43.5	17.6	10.2	34.1	20.9	41.8	28.9	76.1	37.9	inhibition at 10 µM (MOLT-4): 70.3%; inhibition at 10 µM (RPMI-8226): 47.3%
COC(=O)COc1cccc(C=NNC(=O)Cn2c(-c3ccc(OC)cc3)nc3cc(Cl)c(Cl)cc32)c1 [Compound 10g, Methyl-2-(3-((2-(2-(5,6-dichloro-2-(4-methoxyphenyl)-1H-benzo[d]imidazol-1-yl)acetyl)hydrazono)methyl)phenoxy)acetate]	13.2	32.9	11.9	< 5	78.3	< 5	10	< 5	< 5	55.9	< 5	10.5	< 5	< 5	< 5	< 5	20.9	13.9	112	10.6	inhibition at 10 µM (MOLT-4): 30.4%; inhibition at 10 µM (RPMI-8226): < 5%
COc1ccc(-c2nc3cc(Cl)c(Cl)cc3n2CC(=O)NN=Cc2cccc(OCC(=O)O)c2)cc1 [Compound 10e, 2-(3-((2-(2-(5,6-Dichloro-2-(4-methoxyphenyl)-1H-benzo[d]imidazol-1-yl)acetyl)hydrazono)methyl)phenoxy)acetic acid]	< 5	< 5	< 5	< 5	< 5	< 5	< 5	< 5	< 5	< 5	< 5	< 5	< 5	5.12	6.12	< 5	< 5	7.11	< 5	< 5	inhibition at 10 µM (MOLT-4): < 5%; inhibition at 10 µM (RPMI-8226): < 5%
COc1ccc(-c2nc3cc(Cl)c(Cl)cc3n2CC(=O)NN=Cc2cccc(O)c2)cc1 [Compound 10a, 2-(5,6-Dichloro-2-(4-methoxyphenyl)-1H-benzo[d]imidazol-1-yl)-N'-(3-hydroxybenzylidene)acetohydrazide]	76.6	44.4	45.9	20.5	42	24.1	28.6	40	35.5	69.7	40	55	41	53.8	41.1	57.7	40.6	36.9	82.1	59.6	inhibition at 10 µM (MOLT-4): 70.4%; inhibition at 10 µM (RPMI-8226): 67.4%
